Reference: BindingDB's records for doi:10.1021/jm00076a021 (New York University, 1994)

Assay: Binding affinity against sigma receptor in bovine cerebellum using 2.0 nM [3H]haloperidol in the presence of 25 nM unlabeled spiperone

## O=C(CCN1CC=C(c2ccc(Cl)cc2)CC1)c1ccccc1Cl [1-(2-Chloro-phenyl)-3-[4-(4-chloro-phenyl)-3,6-dihydro-2H-pyridin-1-yl]-propan-1-one]
  IC50: 105 nM
